Results taken from publication PMC5078989, “Targeted inhibition of the COP9 signalosome for treatment of cancer” (Nature Communications, 2016).

Tested on: panel of cancer cell lines
Test: Cell viability (CellTiter-Glo) dose-response across cancer cell line panel;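 note: after 72 h compound incubation with CellTiter-Glo ATP readout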
Format: cell-based, human
Settings: Homo sapiens
Description: Next, we explored the effect of CSN5 inhibition on the viability of cancer cells. To obtain a comprehensive picture, we generated dose–response curves with a CSN5 inhibitor across more than 500 cancer cell lines in a previously described standardized setting[47] (Supplementary Data 1).
A standardized CellTiter-Glo Assay (Promega #G7570) based on the quantification of ATP was applied according to the manufacturer's protocol to measure the amount of viable cells in culture. In brief, cells were seeded into 384-well plates at optimal density for each cell line. After 4 h, compounds were added at different concentrations in growth medium and incubated for another 72 h in a humidifying chamber at 37 °C and 5% CO2. […] EC50 values were calculated from the plot of percentage of inhibition versus inhibitor concentration using the nonlinear regression analysis software Origin 7.5SR6 (OriginLab Corp.).

`NS(=O)(=O)OC[C@@H]1C[C@@H](n2ccc3c(N[C@H]4CCc5ccccc54)ncnc32)C[C@@H]1O` [MLN4924] was tested, and the EC50 (HEC-251, HEC-251) was 8160 nM, the EC50 (HEC-265) was 20000 nM and the EC50 (HEL) was 190 nM. For the same molecule, the EC50 (HEL 92.1.7, HEL 92.1.7) was 94.8 nM, the EC50 (HEY A8, Hey-A8) was 114 nM and the EC50 (HL-60, HL-60) was 361 nM. For the same molecule, the EC50 (HLC-1) was 981 nM, the EC50 (HLE) was 454 nM and the EC50 (HLF) was 739 nM. For the same molecule, the EC50 (HMC-1-8) was 154 nM, the EC50 (HPAC) was 830 nM and the EC50 (HPBALL, HPB-ALL) was 333 nM. The EC50 (HRT-18, HRT-18) was 1860 nM, the EC50 (HSC-2, HSC-2) was 146 nM and the EC50 (HSC-3, HSC-3) was 292 nM. For the same molecule, the EC50 (HSC-4, HSC-4) was 268 nM, the EC50 (HT-29, HT-29) was 2230 nM and the EC50 (HT-1080, HT-1080) was 215 nM. It also gave an EC50 (Hep3B) of 2560 nM, an EC50 (Hep 3B2.1-7) of 4280 nM and an EC50 (Hs 294T) of 1860 nM. The EC50 (Hs 695T) was 719 nM, the EC50 (Hs766T, Hs 766T) was 18800 nM and the EC50 (Hs 852.T) was 804 nM. The EC50 (Hs 936.T) was 202 nM, the EC50 (Hs 939.T) was 600 nM and the EC50 (Hs 944.T) was 898 nM. For the same molecule, the EC50 (HuH-6, HuH-6) was 4960 nM, the EC50 (HuP-T4, HUP-T4) was 360 nM and the EC50 (Huh-7, HuH-7) was 723 nM. For the same molecule, the EC50 (IGR-37, IGR-37) was 613 nM, the EC50 (IGR-39, IGR-39) was 545 nM and the EC50 (IGROV-1, IGROV1) was 399 nM. The EC50 (IPC-298, IPC-298) was 716 nM, the EC50 (IST-MES2) was 421 nM and the EC50 (Ishikawa) was 213 nM. For the same molecule, the EC50 (J82, J82) was 1650 nM, the EC50 (JHH7, JHH-7) was 12200 nM and the EC50 (JHH-4, JHH-4) was 594 nM. For the same molecule, the EC50 (JHOM-1) was 1300 nM, the EC50 (JHOS-2) was 274 nM and the EC50 (JHUEM-2) was 952 nM. It also gave an EC50 (JHUEM-3) greater than 30000 nM, an EC50 (JIMT-1, JIMT-1) of 8670 nM and an EC50 (JL-1) of 2290 nM. It also gave an EC50 (JU77) of 304 nM, an EC50 (JVM-2, JVM-2) of 83.5 nM and an EC50 (K029AX) of 1740 nM. The EC50 (KARPAS-422, KARPAS-422) was 654 nM, the EC50 (KATO III) was 711 nM and the EC50 (KBM-7, KBM-7) was 106 nM. The EC50 (KCI-MOH1) was 2000 nM, the EC50 (KE-97, KE-97) was 210 nM and the EC50 (KLE) was 897 nM. It also gave an EC50 (KM12, KM12) of 1570 nM, an EC50 (KMM-1, KMM-1) of 462 nM and an EC50 (KMRC-1, KMRC-1) of 435 nM. For the same molecule, the EC50 (KMRC-20) was 1520 nM, the EC50 (KMS-11, KMS-11) was 426 nM and the EC50 (KNS-42, KNS-42) was 282 nM. It also gave an EC50 (KNS-60) of 486 nM, an EC50 (KNS-62, KNS-62) of 398 nM and an EC50 (KP-1N) of 15600 nM. It also gave an EC50 (KP-1NL) of 13600 nM, an EC50 (KP-2) of 4050 nM and an EC50 (KP-4, KP4) of 828 nM. For the same molecule, the EC50 (KS-1) was 336 nM, the EC50 (KU-19-19, KU-19-19) was 922 nM and the EC50 (KURAMOCHI) was 1250 nM. The EC50 (KYSE-30, KYSE-30) was 356 nM, the EC50 (KYSE-70, KYSE-70) was 1060 nM and the EC50 (KYSE-150, KYSE-150) was 725 nM. It also gave an EC50 (KYSE-180, KYSE-180) of 1290 nM, an EC50 (Kasumi-3, Kasumi3) of 292 nM and an EC50 (Kasumi-6) of 286 nM. It also gave an EC50 (L3.3) of 120 nM, an EC50 (L-363, L-363) of 139 nM and an EC50 (L-428, L-428) of 3080 nM. For the same molecule, the EC50 (LC-1/sq-SF) was 926 nM, the EC50 (LC-1F) was 586 nM and the EC50 (LC-2-ad, LC2/ad) was 540 nM. It also gave an EC50 (LCLC-103H) of 573 nM, an EC50 (LIM1899) of 2310 nM and an EC50 (LIM2099) of 440 nM. It also gave an EC50 (LIM2405) of 305 nM, an EC50 (LIM2550) of 53.5 nM and an EC50 (LMSU) of 100 nM. The EC50 (LN-18, LN-18) was 178 nM, the EC50 (LO68) was 3750 nM and the EC50 (LOU-NH91, LOU-NH91) was 296 nM. For the same molecule, the EC50 (LOX IMVI) was 262 nM, the EC50 (LP-1, LP-1) was 536 nM and the EC50 (LS180, LS 180) was 175 nM. It also gave an EC50 (LUDLU-1, LUDLU-1) of 2510 nM, an EC50 (Li-7, Li-7) of 827 nM and an EC50 (Lu-65, LU65) of 922 nM. The EC50 (Lu-99, LU99) was 98.5 nM, the EC50 (M-07e) was 1020 nM and the EC50 (MCAS) was 529 nM. It also gave an EC50 (MCC13) of 4250 nM, an EC50 (MCC14/2) of 36.1 nM and an EC50 (MCC26) of 652 nM. The EC50 (MDA-MB-134-VI) was 678 nM, the EC50 (MDA-MB-157, MDA-MB-157) was 8450 nM and the EC50 (MDA-MB-175-VII) was 448 nM. The EC50 (MDA-MB-231, MDA-MB-231) was 422 nM, the EC50 (MDA-MB-415, MDA-MB-415) was greater than 30000 nM and the EC50 (MDA-MB-435S) was 3550 nM. It also gave an EC50 (MDA-MB-436, MDA-MB-436) of 1430 nM, an EC50 (MDA-MB-453, MDA-MB-453) of 106 nM and an EC50 (MDA-MB-468, MDA-MB-468) of 396 nM. It also gave an EC50 (MDST8, MDST8) of 311 nM, an EC50 (ME-180, ME180) of 177 nM and an EC50 (MEC1, MEC-1) of 302 nM. For the same molecule, the EC50 (MEL-HO) was 873 nM, the EC50 (MEL-JUSO) was 364 nM and the EC50 (MES-SA) was 932 nM. The EC50 (MFE-280, MFE-280) was 364 nM, the EC50 (MFE-296, MFE-296) was 109 nM and the EC50 (MFE-319) was 3660 nM. It also gave an EC50 (MFM-223, MFM223) of 105 nM, an EC50 (MG-63, MG-63) of 261 nM and an EC50 (MIA PaCa-2, MIA PaCa-2) of 518 nM. The EC50 (MINO) was 13.1 nM, the EC50 (MKN-1, MKN1) was 1020 nM and the EC50 (MKN-45, MKN-45) was 363 nM. It also gave an EC50 (ML-2, ML-2) of 57.1 nM, an EC50 (MM127) of 325 nM and an EC50 (MM138) of 251 nM. It also gave an EC50 (MM170) of 334 nM, an EC50 (MM253) of 35.5 nM and an EC50 (MM370) of 273 nM. The EC50 (MM383) was 281 nM, the EC50 (MM386) was 950 nM and the EC50 (MM415) was 675 nM. It also gave an EC50 (MM426) of 754 nM, an EC50 (MM466) of 2560 nM and an EC50 (MM473, MM473) of 589 nM. For the same molecule, the EC50 (MM485) was 820 nM, the EC50 (MM537) was 84.6 nM and the EC50 (MM576) was 511 nM. It also gave an EC50 (MM603) of 415 nM, an EC50 (MOG-G-CCM) of 2350 nM and an EC50 (MOLM-13, MOLM-13) of 46.3 nM. For the same molecule, the EC50 (MOLP-8, MOLP-8) was 132 nM.
